# Results reported in US20230114280A1, “COMPOSITIONS AND METHODS CONTAINING REDUCED NICOTINAMIDE RIBOSIDE FOR PREVENTION AND TREATMENT OF NEUROLOGICAL DISEASES AND CONDITIONS” (SOCIETE DES PRODUITS NESTLE S.A., priority 2020, published 2023).
# “Also recorded” adds a separate entry of the source. Counter-ions that a name gives are not always drawn.
# Columns and labels:
# [1] = Stability of NRH or NR spiked in isolated mouse plasma; type: in vitro ADME
# Description: (§1) The UHPLC consisted of a binary pump, a cooled autosampler, and a column oven (DIONEX Ultimate 3000 UHPLC+ Focused, Thermo Scientific), connected to a triple quadrupole spectrometer (TSQ Vantage, Thermo Scientific) equipped with a heated electrospray ionisation (H-ESI) source. Of each sample, 2 µL were injected into the analytical column (2.1 mm x 150 mm, 5 µm pore size, 200 Å HILICON iHILIC®-Fusion(P)), guarded by a pre-column (2.1 mm x 20 mm, 200 Å HILICON iHlLIC®-Fusion(P) Guard Kit) operating at 35° C. The mobile phase (10 mM ammonium acetate at pH 9, A, and acetonitrile, B) was pumped at 0.25 mL/min flow rate over a linear gradient of decreasing organic solvent (0.5-16 min, 90-25% B), followed by re-equilibration for a total run time of 30 min. The MS operated in positive mode at 3500 V with multiple reaction monitoring (MRM). The software Xcalibur v4.1.31.9 (Thermo Scientific) was used for instrument control, data acquisition and processing.
# (§2) NR degradation to NAM has been proposed as a limitation for its pharmacological efficacy.
# [2] = system: mice; experiment: Tissue NAD+ levels after IP injection of NR or NRH in mice; type: in vivo; details: IP 500 mg/kg, after 1 h
# [3] = system: primary hepatocytes from either control or NRK1 knockout (NRK1 KO) mice; experiment: NAD+ levels in primary hepatocytes from control or NRK1 knockout mice; type: cell-based; details: after 1 hour of treatment
# Text: (§3) If NRH led to NAD+ synthesis via the formation of NMNH, this hypothetical path would require the phosphorylation of NRH into NMNH.
# [4] = Circulating NAM, NRH and NR after IP injection in mice; type: in vivo
# Description: as §1
# [5] = system: INS1-cells; experiment: NAD+ levels after NRH treatment in INS1-cells; type: cell-based
# [6] = system: AML12 cells; experiment: Pathway of NRH-induced NAD+ synthesis: intracellular metabolites and pathway inhibitors (NBTI, FK866, 5-IT, ABT-702, gallotannin); type: cell-based; design: action on NAD+ under adenosine kinase inhibition by 5-IT: dose or concentration left out as unconfirmed
# Description: FIG. 4. NRH leads to NAD+ biosynthesis through an adenosine kinase dependent path. […] Then, 1 hour later, acidic extracts were obtained to measure NAD^+ levels. All values in the figure are expressed as mean +/- SEM of 3 independent experiments. * indicates statistical difference at p< 0.05 vs. the respective vehicle treated group.
# A path in which NRH would be converted to NMNH, then to NADH and this would be finally oxidized to NAD+.
# In order to understand the exact path by which NRH synthesizes NAD+, we initially evaluated whether NRH, could be transported into the cell by equilibrative nucleoside transporters (ENTs).
# as §3
# Considering the molecular structure of NRH, we reasoned that an alternative nucleoside kinase could be responsible for the phosphorylation of NRH.
# As a follow-up step, NMNAT enzymes could catalyze the transition from NMNH to NADH.
# [7] = system: Primary rat cortical neurons; experiment: Amyloid β oligomer induced loss of neurite network in primary cortical neurons (MAP-2 staining); type: cell-based; details: NRH 0.01 mM pre-incubated 24 hr or 6 hr, Aβ1-42 15 µmol/L for 24 h
# Description: FIG. 7. […] Primary rat cortical neurons were cultured as described in Callizot et al., 2013. […] The Aβ1-42 preparation was done as described in Callizot et al., 2013. The Aβ1-42 preparation was added to a final concentration of 15 µmol/L (2.25 µmol/L oligomers, AβO) diluted in control medium in presence of compounds and let for 24 h. The cortical neurons were then fixed by a cold solution of ethanol (95%) and acetic acid (5%), permeabilized with saponin and incubated with an anti microtubule-associated-protein 2 (MAP-2), to stain cell bodies and neurites, allowing the study of the length of the neurite network. For each condition, 30 pictures (representative of the all well area) per well were taken using ImageXpress (Molecular Devices) with 20x magnification. Neurite length was then evaluated as % of control values. All values are expressed as mean +/-SEM from 5-6 independent wells. * indicates statistically significant difference vs. the amyloid b1-42 treated groups.
# Primary rat cortical neurons were cultured as described in Callizot et al., 2013. […] The Aβ1-42 preparation was done as described in Callizot et al., 2013. The Aβ1-42 preparation was added to a final concentration of 15 µmol/L (2.25 µmol/L oligomers, AβO) diluted in control medium in presence of compounds and let for 24 h. […] Neurite length was then evaluated as % of control values.
# [8] = system: C2C12 myotubes; experiment: NAD+ levels after NRH treatment in C2C12 myotubes; type: cell-based
# [9] = system: AML12 hepatocytes; experiment: Intracellular NAD+ levels in AML12 hepatocytes treated with NRH or NR (dose-response, time course); type: cell-based
# Description: FIG. 3. NHR acts rapidly after 5 minutes from treatment.
# [10] = system: 3T3 fibroblasts; experiment: NAD+ levels after NRH treatment in 3T3 fibroblasts; type: cell-based
# [11] = Text: as §2
compound,measurement,setting,value
"NC(=O)c1ccc[n+]([C@@H]2O[C@H](CO)[C@@H](O)[C@H]2O)c1 [NR, 1-b-D-ribofuranosyl-3-pyridinecarboxamide salt, reference compound]",generation of NAM in isolated mouse plasma,[1]; 2 h of incubation,increase in NAM
same,levels of the compound in isolated mouse plasma,[1]; 2 h of incubation,NR levels decayed in plasma
same,"NAD+ levels in liver, muscle and kidney",[2],"increased NAD+ levels in liver, muscle and kidney"
same,NAD+ levels in NRK1 KO derived primary hepatocytes,[3],failed to increase NAD+ levels
same,NAM levels in circulation,"[4]; mice, IP 500 mg/kg",highly increased
dihydro-1-beta-D-ribofuranosyl-3-pyridinecarboxamide [NRH],NAD+ levels,[5],highly elevated NAD+ levels
same,action on NAD+ under adenosine kinase inhibition by 5-IT,"[6]; 5-IT for 1 hour prior to NRH, NAD+ measured 1 hour later",fully ablated the action of NRH
same,formation of NR and NMN after NRH treatment with 5-IT,[6]; 5-IT treatment,prevented the formation of NR and NMN
same,intracellular detection of NRH and NMNH,[6]; 5 minutes after treatment,could be detected intracellularly
same,"generation of NMNH, NADH and NAD+ upon inhibition of AK (metabolomic analyses)",[6]; after NRH treatment,fully blunted
same,intracellular NR and NMN after treatment,[6]; compared with NR treatment,"increase in intracellular NR and NMN, greater than that triggered by NR itself"
same,NAD+ synthesis with NMNAT inhibitor gallotannin,[6]; gallotannin,largely compromised NAD+ synthesis
same,NRH action with gallotannin at maximal doses,"[6]; gallotannin, NRH 0.5 mM",part of the NRH action remained
same,NRH action with gallotannin at submaximal doses,"[6]; gallotannin, submaximal NRH doses",totally blocked
same,capacity as extracellular NAD+ precursor under ENT blockade,[6]; in the presence of S-(4-nitrobenzyl)-6-thioinosine (NBTI),largely lost its capacity as an extracellular NAD+ precursor
same,action on NAD+ under adenosine kinase inhibition by ABT-702,"[6]; second, structurally different AK inhibitor ABT-702",role of AK in NRH-mediated NAD+ synthesis was confirmed
same,dependence of action on NAMPT,"[6]; with FK866, a NAMPT inhibitor",NAMPT-independent
same,NR production on incubation in isolated plasma,[1],did not lead to NR production
same,neurite network / neurite length after Amyloid β1-42 exposure,[7],protects against Amyloid β oligomer induced loss of neurite network; also recorded: protects against Amyloid β-oligomer induced toxicity in terms of neurite length
same,"NAD+ levels in liver, muscle and kidney",[2],"increased NAD+ levels in liver, muscle and kidney"
same,NAD+ levels,[8],highly elevated NAD+ levels
same,ability to increase intracellular NAD+ compared with NR,[9],better than NR; also recorded: superior to that of NR
same,concentration range of maximal effects on NAD+ synthesis,[9],around the millimolar range
same,time to significant increases in NAD+ levels after treatment,[9],≤ 5 min
same,increase of intracellular NAD+ levels at maximal effect,[9]; around the millimolar range,more than 10 fold
same,concentration at which NAD+ levels are significantly increased,[9]; dose-response,10 µM
same,NAD+ levels,[10],highly elevated NAD+ levels
same,NR in circulation,"[4]; mouse, in vivo",much higher levels than those detected after NR injection itself
same,NAM levels in circulation,"[4]; mouse, in vivo, ip, 500 mg/kg",only a very mild increase
same,degradation to NAM in FBS supplemented media,[11],did not degrade to NAM
